Values quoted from earlier work in patent US20110153027A1, “Drug Delivery System” (Vysera Biomedical Limited, priority 2009, published 2011).

Tests used:
[1] = minimum effective concentration
[2] = compared with cyclosporine

| Compound | MEC [1] | water solubility [2] |
| --- | --- | --- |
| Sc1ncnc2nc[nH]c12 [6-mercaptopurine] | 1 µg/mL |  |
| Cn1cnc([N+](=O)[O-])c1Sc1ncnc2nc[nH]c12 [Azathioprine] | 1 µg/mL |  |
| O=C(O)c1cn(C2CC2)c2cc(N3CCNCC3)c(F)cc2c1=O [Ciprofloxacin] | 0.2 µg/mL |  |
| Cc1ncc([N+](=O)[O-])n1CCO [Metronidazole] | 8 µg/mL | higher water solubility than cyclosporine |
